# Results taken from patent publication US10508109B2 (priority 2015, dated 2019).
# Where a name gives a salt, the structure may show the parent alone. Read-outs that look alike come from different tables or passages of the source.
# What was measured:
# [1] = tested on: CCD-18Co; test: Cell-based assay, anti-proliferative activity (Cell Counting Kit-8, 72 hours); details: Homo sapiens, read-out: IC50 (μM) CCD-18Co
# Experimental: (§1) Active candidate inhibitors against SUV39H2 were evaluated for their target-specific cytotoxicity using A549, HCT-116, HFL1, CCD-18Co and PC14. 100 micro-L of cell suspension was seeded onto 96-well microtiter plate (ViewPlate-96FTC, PerkinElmer). The initial cell concentration of A549, HCT-116, HFL1, CCD-18Co and PC14 were 3,000 cells/well, 2,000 cells/well and 2,500 cells/well, respectively. Cellular growth was determined using Cell Counting Kit-8 (DOJINDO) at 72 hours after the exposure of the candidate inhibitors. IC50 was used as an indicator of the anti-proliferative activity of the inhibitors, and calculated by serial dilution method (0, 1.5625, 3.125, 6.25, 12.5, 25, 50, and 100 micro-M). Accurate IC50 values were calculated as described previously.
# [2] = tested on: HCT-116; test: as above; details: Homo sapiens, read-out: IC50 (μM) HCT-116
# Experimental: as §1
# [3] = tested on: HFL1; test: as above; details: Homo sapiens, read-out: IC50 (μM) HFL1
# Experimental: as §1
# [4] = target: SUV39H2 (Homo sapiens (Human), UniProt Q9H5I1); details: read-out: IC50 (μM) Suv 39H2 assay; enzyme assay
# SUV39H2, sequence (Q9H5I1 whole entry): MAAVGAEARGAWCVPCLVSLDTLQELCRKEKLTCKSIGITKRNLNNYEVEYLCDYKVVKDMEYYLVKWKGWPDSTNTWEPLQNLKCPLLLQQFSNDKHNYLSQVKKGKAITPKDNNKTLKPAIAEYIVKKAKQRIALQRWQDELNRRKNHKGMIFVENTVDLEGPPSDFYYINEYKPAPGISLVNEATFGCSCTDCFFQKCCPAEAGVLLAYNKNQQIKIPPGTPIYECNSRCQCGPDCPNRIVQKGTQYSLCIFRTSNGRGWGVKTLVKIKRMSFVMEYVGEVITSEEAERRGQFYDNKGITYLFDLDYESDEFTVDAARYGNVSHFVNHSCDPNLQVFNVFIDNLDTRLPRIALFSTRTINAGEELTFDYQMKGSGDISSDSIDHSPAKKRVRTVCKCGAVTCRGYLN
# [5] = tested on: A549; test: Cell-based assay, anti-proliferative activity (Cell Counting Kit-8, 72 hours); details: Homo sapiens, read-out: IC50 (μM) A549
# Experimental: 100 micro-L of cell suspension was seeded onto 96-well microtiter plate (ViewPlate-96FTC, PerkinElmer). […] Cellular growth was determined using Cell Counting Kit-8 (DOJINDO) at 72 hours after the exposure of the candidate inhibitors. […] Accurate IC50 values were calculated as described previously.
# [6] = CCD-18Co cells, Cell Counting Kit-8, 72 hours
# [7] = HCT-116 cells, Cell Counting Kit-8, 72 hours
# [8] = HFL1 cells, Cell Counting Kit-8, 72 hours
# [9] = A549 cells, Cell Counting Kit-8, 72 hours
SMILES,"IC50 [1, 6]","IC50 [2, 7]","IC50 [3, 8]",IC50 [4],"IC50 [5, 9]","IC50 ([1]; CCD-18Co, 72 h)","IC50 ([2]; HCT-116, 72 h)","IC50 ([3]; HFL1, 72 h)","IC50 ([5]; A549, 72 h)"
"COc1cc(OC)c(-c2cn3ccc(NCCN4CCOCC4)cc3n2)cc1Cl [Example 70, 2-(5-chloro-2,4-dimethoxyphenyl)-N-(2-morpholinoethyl)imidazo[1,2-a]pyridine-7-amine]",14 µM,10 µM,8.4 µM,0.0165 µM,14 µM,,,,
"COc1cc(OC)c(-c2cn3ccc(N4CCC(N)C4)cc3n2)cc1C#N (stereo not drawn) [Example 73, 5-[7-(3-aminopyrrolidin-1-yl)imidazo[1,2-a]pyridin-2-yl]-2,4-dimethoxybenzonitrile]",5.6 µM,1.5 µM,1.5 µM,0.0112 µM,2.3 µM,,,,
"COc1cc(OC)c(-c2cn3ccc(N4CCC(NC(=O)OC(C)(C)C)C4)nc3n2)cc1C#N (stereo not drawn) [Example 74, tert-butyl (1-(2-(5-cyano-2,4-dimethoxyphenyl)imidazo[1,2-a]pyrimidin-7-yl)pyrrolidin-3-yl) carbamate]",6.4 µM,8.1 µM,3.9 µM,0.0303 µM,8.5 µM,,,,
"COc1cc(OC)c(-c2cn3ccc(NCCNC(C)=O)cc3n2)cc1Cl [Example 77, N-(2-((2-(5-chloro-2,4-dimethoxyphenyl)imidazo[1,2-a]pyridin-7-yl)amino)ethyl)acetamide]",31 µM,21 µM,15 µM,0.0101 µM,30 µM,,,,
"COc1cc(OC)c(-c2cn3ccc(N4CCOCC4)nc3n2)cc1Cl [Example 79, 4-(2-(5-chloro-2,4-dimethoxyphenyl)imidazo[1,2-a]pyrimidin-7-yl)-morpholine hydrobromide]",22 µM,21 µM,15 µM,0.0344 µM,21 µM,,,,
"COc1cc(OC)c(-c2cn3cc(NCCN)ccc3n2)cc1Cl [Example 81, N^1-(2-(5-chloro-2,4-dimethoxyphenyl)imidazo[1,2-a]pyridin-6-yl)ethane-1,2-diamine]",11 µM,11 µM,5.6 µM,0.0179 µM,13 µM,,,,
"COc1cc(OC)c(-c2cn3ccc(NCCN(C)C)cc3n2)cc1Cl [Example 83, N^1-(2-(5-chloro-2,4-dimethoxyphenyl)imidazo[1,2-a]pyridin-7-yl)-N^2,N^2-dimethylethane-1,2-diamine]",,,,0.0373 µM,,7.1 µM,6.7 µM,2.2 µM,5.5 µM
"COc1cc(OCC2CC2)c(-c2cn3ccc(N4CCOCC4)cc3n2)cc1Cl [Example 84, 4-(2-(5-chloro-2-(cyclopropylmethoxy)-4-methoxyphenyl)imidazo-[1,2-a]pyridin-7-yl)morpholine]",4.3 µM,3.8 µM,3.2 µM,0.0138 µM,4.6 µM,,,,
"COc1cc(OCCCN(C)C)c(-c2cn3ccc(N4CCOCC4)cc3n2)cc1Cl [Example 85, 3-(4-chloro-5-methoxy-2-(7-morpholinoimidazo[1,2-a]pyridin-2-yl)-phenoxy)-N,N-dimethylpropan-1-amine]",7.9 µM,9 µM,3.5 µM,0.0338 µM,8.7 µM,,,,
"COc1cc(OC)c(-c2cn3ccc(N4CCOCC4)cc3n2)cc1C [Example 86, 4-(2-(2,4-dimethoxy-5-methylphenyl)imidazo[1,2-a]pyridin-7-yl)morpholine]",13 µM,14 µM,8 µM,0.0207 µM,14 µM,,,,
"COc1cc(OC)c(-c2cn3ccc(N4CCOCC4)cc3n2)cc1F [Example 87, 4-(2-(5-fluoro-2,4-dimethoxyphenyl)imidazo[1,2-a]pyridin-7-yl)morpholine hydrobromide]",5.6 µM,2.3 µM,4 µM,0.032 µM,3.3 µM,,,,
"COc1cc(OC2CCCC2)c(-c2cn3ccc(N4CCOCC4)cc3n2)cc1Cl [Example 90, 4-(2-(5-chloro-2-(cyclopentyloxy)-4-methoxyphenyl)imidazo[1,2-a]-pyridin-7-yl)morpholine]",6 µM,4.7 µM,3.9 µM,0.0584 µM,7.1 µM,,,,
"COC(=O)NCCNc1cn2cc(-c3cc(Cl)c(OC)cc3OC)nc2cc1OC [Example 91, methyl (2-((2-(5-chloro-2,4-dimethoxyphenyl)-7-methoxyimidazo[1,2-a]-pyridin-6-yl)amino)ethyl)carbamate]",4.7 µM,2.2 µM,2.9 µM,0.0263 µM,3.1 µM,,,,
"COc1cc(OC)c(-c2cn3ccc(N4CCC(N(C)C)CC4)cc3n2)cc1Cl [Example 92, 1-(2-(5-chloro-2,4-dimethoxyphenyl)imidazo[1,2-a]pyridin-7-yl)-N,N-dimethylpiperidin-4-amine]",8.8 µM,7 µM,5.5 µM,0.0135 µM,6 µM,,,,
"COc1cc(OC)c(-c2cn3ccc(N4CCOCC4)cc3n2)cc1C#N [Example 93, 2,4-Dimethoxy-5-(7-morpholinoimidazo[1,2-a]pyridin-2-yl)benzonitrile]",,,,0.0119 µM,,6.3 µM,6.4 µM,9.6 µM,6.4 µM
"COc1cc(OCCN(C)C)c(-c2cn3ccc(N4CCOCC4)cc3n2)cc1Cl [Example 98, 2-(4-chloro-5-methoxy-2-(7-morpholinoimidazo[1,2-a]pyridin-2-yl)-phenoxy)-N,N-dimethylethanamine]",9.9 µM,13 µM,15 µM,0.0372 µM,22 µM,,,,
"COc1cc(OC)c(-c2cn3cc(C4=CCNCC4)c(N4CCOCC4)cc3n2)cc1Cl [Example 101, 4-(2-(5-chloro-2,4-dimethoxyphenyl)-6-(1,2,3,6-tetrahydropyridin-4-yl)imidazo[1,2-a]pyridin-7-yl)morpholine]",6.6 µM,8.6 µM,7.5 µM,0.0105 µM,8.3 µM,,,,
"COC(=O)N1CC=C(c2ccn3cc(-c4cc(Cl)c(OC)cc4OC)nc3c2)CC1 [Example 102, methyl 4-[2-(5-chloro-2,4-dimethoxyphenyl)imidazo[1,2-a]pyridin-7-yl]-5,6-dihydropyridine-1(2H)-carboxylate]",2.8 µM,1.9 µM,2.3 µM,0.0756 µM,1.6 µM,,,,
"COCCN1CCN(c2ccn3cc(-c4cc(Cl)c(OC)cc4OC)nc3c2)CC1 [Example 105, 2-(5-chloro-2,4-dimethoxyphenyl)-7-(4-(2-methoxyethyl)piperazin-1-yl)imidazo[1,2-a]pyridine]",8.1 µM,7 µM,8.3 µM,0.0111 µM,7.2 µM,,,,
"COc1cc(OC)c(-c2cn3ccc(N4CCN(C)CC4)cc3n2)cc1Cl [Example 106, 2-(5-chloro-2,4-dimethoxyphenyl)-7-(4-methylpiperazin-1-yl)imidazo[1,2-a]pyridine]",6.8 µM,6.8 µM,3.9 µM,0.0167 µM,6.3 µM,,,,
"CCOC(=O)N1CCN(c2ccn3cc(-c4cc(Cl)c(OC)cc4OC)nc3c2)CC1 [Example 107, ethyl 4-[2-(5-chloro-2,4-dimethoxyphenyl)imidazo[1,2-a]pyridin-7-yl]-piperazine-1-carboxylate]",3.2 µM,1.7 µM,1.7 µM,0.0116 µM,2.3 µM,,,,
"COc1cc(OC)c(-c2cn3ccc(N4CCN(CCC#N)CC4)cc3n2)cc1Cl [Example 108, 3-(4-(2-(5-chloro-2,4-dimethoxyphenyl)imidazo[1,2-a]pyridin-7-yl)piperazin-1-yl)propanenitrile]",5.9 µM,10 µM,3 µM,0.0142 µM,6.3 µM,,,,
"COc1cc(OC)c(-c2cn3ccc(C4=CCN(CCC#N)CC4)cc3n2)cc1Cl [Example 109, 3-(4-(2-(5-chloro-2,4-dimethoxyphenyl)imidazo[1,2-a]pyridin-7-yl)-5,6-dihydropyridin-1(2H)-yl)propanenitrile]",2.6 µM,5.1 µM,1.8 µM,0.0417 µM,5.9 µM,,,,
"COc1cc(OC)c(-c2cn3ccc(C4=CCN(CC#N)CC4)cc3n2)cc1Cl [Example 111, 2-(4-(2-(5-chloro-2,4-dimethoxyphenyl)imidazo[1,2-a]pyridin-7-yl)-5,6-dihydropyridin-1(2H)-yl)acetonitrile]",4.8 µM,3.5 µM,1.9 µM,0.0614 µM,3.3 µM,,,,
